# Results as given in PMC8573827, “Zinc protoporphyrin binding to telomerase complexes and inhibition of telomerase activity” (Pharmacology Research & Perspectives, 2021).
# Read-outs that look alike come from different tables or passages of the source.
# What was measured:
# Huh7 cells = assay: MTT cell proliferation/viability assay, Huh7; assay type: cell-based, human; settings: Huh7 vs U2OS, 72 h
# Procedure: MPPs were tested for effects on cell proliferation and viability using MTT (3‐(4,5‐dimethylthiazol‐2‐yl)‐2,5‐diphenyltetrazolium bromide) dye conversion assay (Cell Titer 96, Promega) as we described[22] with some modifications. Cells were plated into 96 well plates and allowed to attach overnight. MPPs were added to the cultures and then incubated for the times indicated. At assay time, MTT reagent was added and absorbance measured at 570 nm. Controls included buffer blanks containing MPP because of background absorbances reported for MPPs by us[22] and others.[23] The formula used for determination of viable cells relative to controls was: %viablecells=(abssample‐absblank)/(absconrtrol‐absblank)×100
# [1] = test system: TERT, β-catenin, and cyclin D1 expression; assay: Western blot of proliferative proteins in Huh7 cells; assay type: cell-based, human; settings: Huh7, 48 h
# Procedure: For SDS ‐PAGE, cellular lysates, and protein preparations such as IP were dissolved in Laemmli buffer, boiled for 1 min and separated on denaturing SDS gels as described.[28] After electrophoretic transfer of separated proteins to nitrocellulose sheets, western blot immunoassays employed enhanced chemiluminescence for signal detection (ECL^TM Prime, Amersham).[28]
# Taq DNA polymerase = molecular target: T1, Taq DNA polymerase (Thermus aquaticus, UniProt P19821); assay: Taq polymerase inhibition test, MPP added after the telomerase extension step of TRAP; assay type: biochemical
# T1 construct: purchased Perkin‐Elmer Cetus, Norwalk, CT
# T1 sequence (P19821 whole entry): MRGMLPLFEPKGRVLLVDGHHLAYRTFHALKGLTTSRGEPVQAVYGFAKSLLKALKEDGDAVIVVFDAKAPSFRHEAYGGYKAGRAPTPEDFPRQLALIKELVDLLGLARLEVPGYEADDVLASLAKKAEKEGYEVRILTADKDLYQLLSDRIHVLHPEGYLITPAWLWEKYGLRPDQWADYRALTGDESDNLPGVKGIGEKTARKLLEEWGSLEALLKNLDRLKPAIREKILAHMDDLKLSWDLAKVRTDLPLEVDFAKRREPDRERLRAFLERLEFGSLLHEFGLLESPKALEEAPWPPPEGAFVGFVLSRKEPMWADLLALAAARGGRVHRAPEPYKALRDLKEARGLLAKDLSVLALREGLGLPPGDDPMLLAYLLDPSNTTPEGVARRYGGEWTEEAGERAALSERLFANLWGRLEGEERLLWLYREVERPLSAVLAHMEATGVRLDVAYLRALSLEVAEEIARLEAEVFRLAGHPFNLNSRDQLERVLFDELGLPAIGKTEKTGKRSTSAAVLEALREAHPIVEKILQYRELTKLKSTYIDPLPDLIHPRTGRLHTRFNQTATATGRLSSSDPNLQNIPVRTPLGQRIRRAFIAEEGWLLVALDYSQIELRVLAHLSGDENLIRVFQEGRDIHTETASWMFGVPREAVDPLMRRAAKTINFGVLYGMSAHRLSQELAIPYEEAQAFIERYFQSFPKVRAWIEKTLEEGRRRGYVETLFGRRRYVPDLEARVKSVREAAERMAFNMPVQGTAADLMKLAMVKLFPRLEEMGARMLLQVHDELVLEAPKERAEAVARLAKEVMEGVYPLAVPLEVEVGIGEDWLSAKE
# Procedure: (§1) For TRAP assay, a Quantitative Telomerase Detection Kit (US Biomax, Inc) was used to assay cellular lysates or TERT immunoprecipitates (IP) according to the manufacturer's directions. Relative telomerase activity was derived from a standard curve of reference samples and data were analyzed using relative fluorescence units as compared to controls. In some cases, telomerase reaction products were visualized and quantified with TRAPeze system (EMD/Millipore). After separation of the DNA products using 10% non‐denaturing PAGE and SYBR fluorescence labeling [1x SYBR safe DNA gel stain (Invitrogen)], gel bands were imaged with iBright 1500 (Invitrogen). The intensity of the sample's TRAP ladder and internal control was first measured using GelAnalyzer [GelAnalyzer 19.1 (www.gelanalyzer.com )] as recommended. Then, the relative telomerase activity was determined by the ratio of the intensity of the sample's TRAP ladder (telomerase products, TP) to that of the internal control (IC) band.
# Because of concerns that some quadruplex ligands inhibit Taq DNA polymerase in addition to telomerase, we assayed MPP inhibition at both steps of the TRAP procedure with a strategy similar to that of others.[36] Using equivalent extracts but separate assays, MPP was either included in the telomerase RT extension step or the extension step was conducted without MPP and then MPP added only for the amplification steps with Taq DNA polymerase. To avoid further potential errors introduced by Real‐time quantification, TRAP products were labeled with SYBR green, visualized on denaturing gels, and each lane was quantified by density measurements as described in the Methods. The latter step also ruled out the possibility that decreases in activity were artifactual due to fluorescence signal quenching by some MPPs.[37] […] All three MPPs had minimal effects on Taq polymerase […] and the slight inhibition of Taq polymerase seen for ZnPP was not directly concentration‐dependent.
# Enzymatic extracts were prepared from semi-confluent Huh7 cells and aliquots were assayed in triplicate using TRAP assay. CoPP was added to RT-PCR reactions either before or after the RT telomere elongation step to test whether it inhibited Taq polymerase. Visualization of amplified telomeric products was on 12% denaturing gels using SYBR fluorescence labelling (upper panels). Quantification was with densitometry as described in Methods and plot shown (lower panel). Plotted points represent the mean +/- SD with n =3. (IC)= internal Taq polymerase control.
# [2] = molecular target: T2, telomerase activity in Huh7 cells (Homo sapiens, UniProt O14746); assay: Telomerase activity by TRAP after incubation of intact Huh7 cells with MPP; assay type: cell-based
# T2 construct: Enzymatic extracts were prepared from semi‐confluent phase Huh7 cells and aliquots were assayed in triplicate using TRAP assay; endogenous in cells; host or cells: Huh7
# T2 sequence (O14746 whole entry): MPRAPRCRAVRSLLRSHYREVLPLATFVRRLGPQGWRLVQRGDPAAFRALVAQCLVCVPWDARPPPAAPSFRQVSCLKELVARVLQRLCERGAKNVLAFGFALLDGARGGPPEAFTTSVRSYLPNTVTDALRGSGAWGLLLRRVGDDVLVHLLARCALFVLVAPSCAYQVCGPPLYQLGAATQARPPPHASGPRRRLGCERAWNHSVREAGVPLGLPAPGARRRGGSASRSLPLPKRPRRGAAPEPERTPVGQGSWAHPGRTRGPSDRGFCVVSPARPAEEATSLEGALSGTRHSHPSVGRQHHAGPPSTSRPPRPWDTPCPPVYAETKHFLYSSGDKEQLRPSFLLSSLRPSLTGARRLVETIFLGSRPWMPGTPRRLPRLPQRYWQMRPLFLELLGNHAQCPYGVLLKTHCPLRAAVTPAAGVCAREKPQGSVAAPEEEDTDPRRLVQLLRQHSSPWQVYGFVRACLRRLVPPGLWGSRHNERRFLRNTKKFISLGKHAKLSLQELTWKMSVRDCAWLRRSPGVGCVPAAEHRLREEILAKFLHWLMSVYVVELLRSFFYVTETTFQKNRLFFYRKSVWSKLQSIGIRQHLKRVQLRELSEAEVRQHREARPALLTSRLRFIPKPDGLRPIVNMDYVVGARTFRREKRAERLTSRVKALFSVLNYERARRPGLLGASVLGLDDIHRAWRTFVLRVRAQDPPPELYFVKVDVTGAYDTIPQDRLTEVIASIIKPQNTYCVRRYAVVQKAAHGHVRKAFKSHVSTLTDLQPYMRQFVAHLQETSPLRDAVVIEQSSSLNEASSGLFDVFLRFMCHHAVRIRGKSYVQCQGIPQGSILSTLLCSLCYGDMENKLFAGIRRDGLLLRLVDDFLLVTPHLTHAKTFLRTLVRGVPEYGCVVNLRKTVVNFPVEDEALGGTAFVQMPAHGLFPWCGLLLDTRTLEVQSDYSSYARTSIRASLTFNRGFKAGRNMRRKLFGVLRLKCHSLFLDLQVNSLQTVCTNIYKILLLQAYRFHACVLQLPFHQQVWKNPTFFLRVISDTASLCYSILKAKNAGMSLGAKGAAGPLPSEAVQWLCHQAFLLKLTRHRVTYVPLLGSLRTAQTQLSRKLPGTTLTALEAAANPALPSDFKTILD
# T2 sequence (O60832 whole entry partner): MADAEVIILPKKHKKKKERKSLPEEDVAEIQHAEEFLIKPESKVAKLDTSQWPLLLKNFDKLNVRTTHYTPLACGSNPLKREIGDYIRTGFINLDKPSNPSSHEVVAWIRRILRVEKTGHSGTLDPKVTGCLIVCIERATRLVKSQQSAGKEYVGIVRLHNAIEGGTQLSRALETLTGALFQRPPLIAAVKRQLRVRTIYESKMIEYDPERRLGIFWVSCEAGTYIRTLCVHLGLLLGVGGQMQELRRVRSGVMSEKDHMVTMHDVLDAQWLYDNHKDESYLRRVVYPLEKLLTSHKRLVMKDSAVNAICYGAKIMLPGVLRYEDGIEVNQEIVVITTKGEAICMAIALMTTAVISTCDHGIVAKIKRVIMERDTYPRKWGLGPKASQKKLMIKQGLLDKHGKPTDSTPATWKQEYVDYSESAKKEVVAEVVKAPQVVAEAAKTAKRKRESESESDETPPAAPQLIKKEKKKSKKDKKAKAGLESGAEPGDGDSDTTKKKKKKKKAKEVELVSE
# T2 sequence (Q9NPE3 whole entry partner): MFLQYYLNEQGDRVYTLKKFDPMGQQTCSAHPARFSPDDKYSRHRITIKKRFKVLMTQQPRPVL
# T2 sequence (Q9NX24 whole entry partner): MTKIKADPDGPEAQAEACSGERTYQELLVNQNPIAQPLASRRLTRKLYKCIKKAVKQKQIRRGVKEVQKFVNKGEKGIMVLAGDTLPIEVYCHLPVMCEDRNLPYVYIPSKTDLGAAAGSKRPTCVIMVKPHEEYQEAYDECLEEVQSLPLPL
# T2 sequence (Q9NY12 whole entry partner): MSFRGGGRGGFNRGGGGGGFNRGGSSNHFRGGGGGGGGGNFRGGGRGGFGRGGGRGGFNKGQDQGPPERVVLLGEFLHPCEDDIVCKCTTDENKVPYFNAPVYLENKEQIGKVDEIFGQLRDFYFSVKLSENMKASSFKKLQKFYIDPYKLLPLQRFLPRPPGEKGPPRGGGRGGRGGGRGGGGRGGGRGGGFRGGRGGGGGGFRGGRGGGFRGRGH
# T2 sequence (Q9BUR4 whole entry partner): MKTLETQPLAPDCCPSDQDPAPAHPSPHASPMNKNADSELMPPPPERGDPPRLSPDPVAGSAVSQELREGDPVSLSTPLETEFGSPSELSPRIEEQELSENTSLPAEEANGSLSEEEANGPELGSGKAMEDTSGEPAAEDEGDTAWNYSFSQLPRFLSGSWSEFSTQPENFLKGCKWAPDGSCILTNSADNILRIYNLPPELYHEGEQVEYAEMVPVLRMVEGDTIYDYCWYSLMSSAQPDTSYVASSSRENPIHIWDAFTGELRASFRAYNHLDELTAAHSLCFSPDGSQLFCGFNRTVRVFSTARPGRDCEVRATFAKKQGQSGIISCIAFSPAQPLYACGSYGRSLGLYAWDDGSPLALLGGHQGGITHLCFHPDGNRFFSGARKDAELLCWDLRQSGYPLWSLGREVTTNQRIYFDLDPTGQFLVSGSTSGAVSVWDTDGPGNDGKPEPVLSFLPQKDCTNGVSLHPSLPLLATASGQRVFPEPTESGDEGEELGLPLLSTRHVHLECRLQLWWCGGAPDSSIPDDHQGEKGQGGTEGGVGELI
# Procedure: (§2) Telomerase reverse transcriptase (TERT) enzymatic activity was determined using Telomeric Repeat Amplification Protocol (TRAP) with Real‐time quantification as described previously,[25] or measured directly using α‐^32P‐dGTP incorporation as described[26] with modifications as below.
# as §1
# (§3) The EC50 was the extracellular concentration of MPP inhibitor calculated to result in 50% reduction of cellular telomerase activity after incubation in whole cells. Similarly, IC50 was the concentration of MPP inhibitor necessary to inhibit 50% of telomerase enzyme activity in vitro in cellular lysates. Both were calculated using GraphPad as directed and verified graphically on plots of enzyme activity vs inhibitor concentration.
# telomerase [3] = molecular target: T3, telomerase (Homo sapiens, UniProt O14746); assay: Direct α-32P-dGTP telomerase extension assay, IP eluates of HEK-293T cells overexpressing TERT, TERC and dyskerin; assay type: biochemical; design: purchased Abbexa Ltd (UK) Abx069991; host or cells: HEK-293T cells overexpressing TERT, TERC and dyskerin; settings: Table 2b; mean of 2–4 experiments
# Procedure: For direct telomerase activity assay, a modified procedure of Tomlinson et al[26] was used. Briefly, HEK‐293T cell pellet from 10^7 cells overexpressing TERT, TERC, and dyskerin was obtained from Abbexa Ltd (UK. Abx069991). The whole‐cell lysate was produced using 1ml buffer A [20 mM HEPES‐KOH buffer (pH 8), 300 mM KCl, 2 mM MgCl2, 0.1% v/v Triton X‐100, 10% v/v glycerol]. Immunoprecipitation of telomerase was performed with anti‐hTERT polyclonal sheep antibody (abx120550, Abbexa, U.K.). The telomerase was finally eluted with hTERT peptide (abx069990, Abbexa, U.K.). 10µl of eluates were mixed with different concentrations of MPP and incubated on ice for 2 h. Then the pellet‐MPP complex was added to the extension reaction mixture composed of 1x telomerase buffer, 300 mM KCl, 1 µM Bio‐L‐18GGG, 1 mM dATP, 1 mM dTTP, 10 µM dGTP, 20 µCi α‐^32P‐dGTP, 10 mM DTT, 5’ biotinylated DNA substrate (5’‐CTAGACCTGTCATCA(TTAGGG)3‐3’) and 10% glycerol. The reaction was conducted at 37 °C for 2 h. The purification of telomerase extension products employed Dynabeads M‐280 streptavidin. Five microliters of purified products were loaded on 6% sequencing gel (TBE‐UREA denaturing gel) with Model S2 Sequencing Gel Electrophoresis Apparatus (LabRepCo, Horsham, PA). […] This screen was then scanned using a STORM phosphorimager (Molecular Dynamics), and bands were quantified using GelAnalyzer as described above. […]
# Target sequence in this assay (O14746 whole entry): as the sequence (O14746 whole entry) above
# Target sequence in this assay (O60832 whole entry partner): as the sequence (O60832 whole entry partner) above
# Target sequence in this assay (Q9NPE3 whole entry partner): as the sequence (Q9NPE3 whole entry partner) above
# Target sequence in this assay (Q9NX24 whole entry partner): as the sequence (Q9NX24 whole entry partner) above
# Target sequence in this assay (Q9NY12 whole entry partner): as the sequence (Q9NY12 whole entry partner) above
# telomerase [4] = molecular target: T3, telomerase; assay: TRAP (TRAPeze) telomerase activity assay in Huh7 cellular lysates/enzymatic extracts; assay type: biochemical; design: Enzymatic extracts were prepared from semi‐confluent phase Huh7 cells and aliquots were assayed in triplicate using TRAP assay; endogenous in cells; host or cells: Huh7
# Procedure: as §2, §1, §3
# Target sequence in this assay (O14746 whole entry): as the sequence (O14746 whole entry) above
# Target sequence in this assay (O60832 whole entry partner): as the sequence (O60832 whole entry partner) above
# Target sequence in this assay (Q9NPE3 whole entry partner): as the sequence (Q9NPE3 whole entry partner) above
# Target sequence in this assay (Q9NX24 whole entry partner): as the sequence (Q9NX24 whole entry partner) above
# Target sequence in this assay (Q9NY12 whole entry partner): as the sequence (Q9NY12 whole entry partner) above
# Target sequence in this assay (Q9BUR4 whole entry partner): as the sequence (Q9BUR4 whole entry partner) above
# [5] = molecular target: T4, telomerase activity in Hek293 cells (Homo sapiens, UniProt O14746); assay: Telomerase activity by TRAP after incubation of intact Hek293 cells with MPP; assay type: cell-based
# T4 construct: Log phase Huh7, Hek293 and Huh5.15 HCV replicon cells; endogenous in cells; host or cells: Hek293 (wild type)
# T4 sequence (O14746 whole entry): as the sequence (O14746 whole entry) above
# T4 sequence (O60832 whole entry partner): as the sequence (O60832 whole entry partner) above
# T4 sequence (Q9NPE3 whole entry partner): as the sequence (Q9NPE3 whole entry partner) above
# T4 sequence (Q9NX24 whole entry partner): as the sequence (Q9NX24 whole entry partner) above
# T4 sequence (Q9NY12 whole entry partner): as the sequence (Q9NY12 whole entry partner) above
# T4 sequence (Q9BUR4 whole entry partner): as the sequence (Q9BUR4 whole entry partner) above
# Procedure: as §2, §1, §3
# [6] = test system: high molecular weight complexes containing telomerase; assay: Fluorescent labelling of cellular lysate complexes on non-denaturing 0.8% agarose gels; assay type: binding, human; settings: Huh7 lysates, fluorescence visualization
# Procedure: 0.8% Agarose gels were run in Tris‐Borate‐EDTA buffer using standard slab gels as described for high molecular weight complexes.[27] Cell lysates were produced by lysing Hek293 and Huh7 cells in NP40 buffer (25 mM HEPES‐KOH, 150 mM KCl, 1.5mM MgCl2, 10% glycerol, 0.5% NP40, 5 mM 2ME, pH 7.5 supplemented with protease inhibitors) for 30 min on ice. Extracts were clarified by centrifugation for 16 000 g for 10 min. The protein concentration was determined by Bradford assay. The indicated amounts of proteins were treated with different amounts of ZnPP for 2 h on ice, and then separated on 0.8% Agarose gels prepared with 0.5xTris‐Borate‐EDTA (TBE) buffer. The gels were run at 100 V for 2 h at 4 °C in 0.5x TBE buffer. […] No antibody and normal rabbit IgG (sc‐2027, Santa Cruz Biotechnology) were included as controls. The IP products were treated with ZnPP and electrophoresed as above. Free ZnPP and ZnPP bound to large complexes were visualized using a wide‐wavelength UV lightbox or with red fluorescence using excitation (EX) 608–632 nm and emission (EM) 675–720 nm. Thyroglobulin (670 kD), a heavy MW marker, was run in parallel lanes and visualized with Coomassie Blue staining or fluorescence to size the complexes. In some cases, cell lysates or IP were incubated with RNase A (Life Technologies, NY); or DNase 1 (Qiagen, CA) 100 µg/ml for 1 h at 4 °C prior to electrophoresis.
# [7] = TRAP, MPP added for the amplification steps only
# [8] = Figure 3A upper panel, 48 h, read-out: EC50 of telomerase activity in cultured Huh7 cells
# [9] = Table 2c, mean of 2–4 experiments, 48 h incubation, read-out: EC50, intact Huh7 cells [TRAP]
# [10] = Table 2a, mean of 2–4 experiments, 6 inhibitor concentrations 0–20 µM, read-out: IC50, cellular lysates [Trapeze]
# [11] = individual experiment, Figure 3B-D, gel densitometry, read-out: IC50 of telomerase activity, TRAP in Huh7 extracts
# [12] = Figure 3A middle panel, 48 h, read-out: EC50 of telomerase activity in cultured Hek293 cells
# [13] = Table 2d, mean of 2–4 experiments, 48 h incubation, read-out: EC50, intact Hek293 cells [TRAP]
Compound,"Effect on proliferation, telomerase-expressing vs telomerase negative line (Huh7 cells)","Effect on expression of TERT, β-catenin and cyclin D1 (western blot) [1]",Effect on Taq polymerase (Taq DNA polymerase; [7]),"Effect on Taq polymerase (Taq DNA polymerase; concentrations of 5-10 µM, Figure S2)","EC50 [2, 8] [µM]","EC50 [2, 9] [µM]",IC50 (telomerase [3]) [µM],IC50 (telomerase [4]; [10]) [µM],IC50 (telomerase [4]; [11]) [µM],"EC50 [5, 12] [µM]","EC50 [5, 13] [µM]",Labelling/binding of cellular complexes on agarose gels [6]
"C/C(=C\C(=O)Nc1ccccc1C(=O)O)c1ccc2ccccc2c1 [BIBR, reference compound]",greater propensity to decrease proliferation,,,,,,,,,,,
"C=CC1=C(C)c2cc3[n-]c(cc4nc(cc5[n-]c(cc1n2)c(C)c5CCC(=O)[O-])C(CCC(=O)[O-])=C4C)c(C)c3C=C.[Co+2].[H+].[H+] [CoPP, cobalt protoporphyrin]",,failed to significantly alter,clearly inhibited Taq polymerase,potent antagonist,,,,,,,,
"C=CC1=C(C)c2cc3[n-]c(cc4[n-]c(cc5nc(cc1n2)C(C)=C5C=C)c(C)c4CCC(=O)O)c(CCC(=O)O)c3C.[Fe+2] [FePP, iron protoporphyrin (heme)]",,failed to significantly alter,minimal inhibition,,> 10,> 20,18.3,> 20,> 10,> 10,> 20,
"C=Cc1c2[n-]c(c1C)/C=c1\[n-]/c(c(C)c1C=C)=C\c1[n-]c(c(CCC(=O)O)c1C)/C=c1\[n-]c(c(C)c1CCC(=O)O)=C2.[Sn+4] [SnPP, tin protoporphyrin]",,failed to significantly alter,minimal inhibition,,> 10,10.8,> 20,12,> 10,> 10,> 20,did not label a discernable cellular complex
